Results from US9255100B2 (BAYER INTELLECTUAL PROPERTY GMBH, priority 2010, dated 2016).

These compounds were tested against T1, N-terminally GST-tagged human full length recombinant Mps-1 kinase (Homo sapiens, UniProt P33981) (assay: Mps-1 kinase assay (TR-FRET)). Details: Mps1 IC50 [nM], 10 μM ATP, 1 μM peptide substrate, 60 min at 22° C.
T1 construct: N-terminally GST-tagged human full length recombinant Mps-1 kinase; purchased Invitrogen, Karslruhe, Germany PV4071
T1 sequence (P33981 1-857): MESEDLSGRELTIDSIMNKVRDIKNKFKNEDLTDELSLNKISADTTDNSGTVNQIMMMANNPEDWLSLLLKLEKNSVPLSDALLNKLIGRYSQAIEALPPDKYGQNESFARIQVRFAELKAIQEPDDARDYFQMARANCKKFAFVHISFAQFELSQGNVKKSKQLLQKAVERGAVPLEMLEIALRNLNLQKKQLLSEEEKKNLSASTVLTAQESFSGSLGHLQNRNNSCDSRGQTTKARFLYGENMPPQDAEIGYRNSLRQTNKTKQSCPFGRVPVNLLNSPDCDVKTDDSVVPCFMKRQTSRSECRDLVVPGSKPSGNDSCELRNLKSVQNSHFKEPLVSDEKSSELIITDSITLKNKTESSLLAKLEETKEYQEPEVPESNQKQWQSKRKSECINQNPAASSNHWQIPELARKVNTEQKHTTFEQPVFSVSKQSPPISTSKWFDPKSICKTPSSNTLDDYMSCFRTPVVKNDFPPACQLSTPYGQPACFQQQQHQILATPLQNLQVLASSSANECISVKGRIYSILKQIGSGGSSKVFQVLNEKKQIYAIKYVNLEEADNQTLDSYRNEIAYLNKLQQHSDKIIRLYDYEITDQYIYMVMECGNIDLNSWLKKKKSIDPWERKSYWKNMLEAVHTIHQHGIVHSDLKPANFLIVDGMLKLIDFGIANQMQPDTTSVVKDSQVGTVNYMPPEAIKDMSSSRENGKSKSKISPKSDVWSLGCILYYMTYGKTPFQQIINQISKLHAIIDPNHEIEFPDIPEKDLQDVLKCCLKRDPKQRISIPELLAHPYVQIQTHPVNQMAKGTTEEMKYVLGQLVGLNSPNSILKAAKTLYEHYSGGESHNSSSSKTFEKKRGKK
Type: biochemical
How it was run: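 GST-Mps-1 (full length, N-term tag) ~1 nM final, linear-range adjusted per lot; biotinylated peptide substrate. Detection: Eu-anti-pSer/Thr donor → SA-XLent acceptor TR-FRET, 1 h, 22° C. Inhibition of kinase activity.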

Row | Structure (SMILES) | IC50 [nM]
1 | Cc1cc(-c2cnc3c(NCC(C)(C)N)cc(-c4ccc(F)cc4)nn23)ccc1C(=O)NC1CC1 [Example 57, 4-{8-[(2-Amino-2-methylpropyl)amino]-6-(4-fluorophenyl)imidazo[1,2-b]pyridazin-3-yl}-N-cyclopropyl-2-methylbenzamide] | 4.4
2 | Cc1cc(-c2cnc3c(NCC(C)(C)N)cc(-c4ccnn4C)nn23)ccc1C(=O)NC1CC1 [Example 58, 4-{8-[(2-Amino-2-methylpropyl)amino]-6-(1-methyl-1H-pyrazol-5-yl)imidazo[1,2-b]pyridazin-3-yl}-N-cyclopropyl-2-methylbenzamide] | 20.5
3 | Cc1cc(-c2cnc3c(NCC(C)(C)N)cc(-c4ccccc4CO)nn23)ccc1C(=O)NC1CC1 [Example 59, 4-{8-[(2-Amino-2-methylpropyl)amino]-6-[2-(hydroxymethyl)phenyl]imidazo[1,2-b]pyridazin-3-yl}-N-cyclopropyl-2-methylbenzamide] | 32.5
4 | Cc1cc(-c2cnc3c(NCC(C)(C)O)cc(Sc4ccc(O)cc4)nn23)ccc1C(=O)NC1CC1 [Example 60A, N-cyclopropyl-4-{8-[(2-hydroxy-2-methylpropyl)amino]-6-[(4-hydroxyphenyl)sulfanyl]imidazo[1,2-b]pyridazin-3-yl}-2-methylbenzamide] | 0.2
5 | COc1ccc(Sc2cc(NCC(C)(C)O)c3ncc(-c4ccc(C(=O)NC5CC5)c(C)c4)n3n2)cc1 [Example 60B, N-cyclopropyl-4-{8-[(2-hydroxy-2-methylpropyl)amino]-6-[(4-methoxyphenyl)sulfanyl]imidazo[1,2-b]pyridazin-3-yl}-2-methylbenzamide] | < 0.1
6 | Cc1cc(-c2cnc3c(NCC(C)(C)O)cc(Sc4cccc(O)c4)nn23)ccc1C(=O)NC1CC1 [Example 61A, N-cyclopropyl-4-{8-[(2-hydroxy-2-methylpropyl)amino]-6-[(3-hydroxyphenyl)sulfanyl]imidazo[1,2-b]pyridazin-3-yl}-2-methylbenzamide] | 0.2
7 | COc1cccc(Sc2cc(NCC(C)(C)O)c3ncc(-c4ccc(C(=O)NC5CC5)c(C)c4)n3n2)c1 [Example 61B, N-cyclopropyl-4-{8-[(2-hydroxy-2-methylpropyl)amino]-6-[(3-methoxyphenyl)sulfanyl]imidazo[1,2-b]pyridazin-3-yl}-2-methylbenzamide] | 0.3
8 | CC(C)(O)CNc1cc(Sc2cccc(F)c2)nn2c(-c3ccc(C(=O)NC4CC4)cc3O)cnc12 [Example 62A, N-cyclopropyl-4-{6-[(3-fluorophenyl)sulfanyl]-8-[(2-hydroxy-2-methylpropyl)amino]imidazo[1,2-b]pyridazin-3-yl}-3-hydroxybenzamide] | 0.2
9 | COc1cc(C(=O)NC2CC2)ccc1-c1cnc2c(NCC(C)(C)O)cc(Sc3cccc(F)c3)nn12 [Example 62B, N-cyclopropyl-4-{6-[(3-fluorophenyl)sulfanyl]-8-[(2-hydroxy-2-methylpropyl)amino]imidazo[1,2-b]pyridazin-3-yl}-3-methoxybenzamide] | 11.5
10 | Cc1cc(Sc2cc(NCC(C)(C)O)c3ncc(-c4ccc(C(=O)NC5CC5)c(C)c4)n3n2)ccc1O [Example 63, N-cyclopropyl-4-{6-[(4-hydroxy-3-methylphenyl)sulfanyl]-8-[(2-hydroxy-2-methylpropyl)amino]imidazo[1,2-b]pyridazin-3-yl}-2-methylbenzamide] | < 0.1
11 | Cc1ccc(F)cc1Sc1cc(NCC(C)(C)O)c2ncc(-c3ccc(C(=O)NC4CC4)c(C)c3)n2n1 [Example 64, N-cyclopropyl-4-{6-[(5-fluoro-2-methylphenyl)sulfanyl]-8-[(2-hydroxy-2-methylpropyl)amino]imidazo[1,2-b]pyridazin-3-yl}-2-methylbenzamide] | 0.1
12 | Cc1cc(Sc2cc(NCC(C)(C)O)c3ncc(-c4ccc(C(=O)NC5CC5)c(C)c4)n3n2)ccc1F [Example 65, N-cyclopropyl-4-{6-[(4-fluoro-3-methylphenyl)sulfanyl]-8-[(2-hydroxy-2-methylpropyl)amino]imidazo[1,2-b]pyridazin-3-yl}-2-methylbenzamide] | 0.7
13 | Cc1ccc(Sc2cc(NCC(C)(C)O)c3ncc(-c4ccc(C(=O)NC5CC5)c(C)c4)n3n2)cc1F [Example 66, N-cyclopropyl-4-{6-[(3-fluoro-4-methylphenyl)sulfanyl]-8-[(2-hydroxy-2-methylpropyl)amino]imidazo[1,2-b]pyridazin-3-yl}-2-methylbenzamide] | 0.2
14 | Cc1cc(F)cc(Sc2cc(NCC(C)(C)O)c3ncc(-c4ccc(C(=O)NC5CC5)c(C)c4)n3n2)c1 [Example 67, N-cyclopropyl-4-{6-[(3-fluoro-5-methylphenyl)sulfanyl]-8-[(2-hydroxy-2-methylpropyl)amino]imidazo[1,2-b]pyridazin-3-yl}-2-methylbenzamide] | 0.1
15 | Cc1cc(-c2cnc3c(NCC(C)(C)O)cc(Sc4cc(F)cc(F)c4)nn23)ccc1C(=O)NC1CC1 [Example 68, N-cyclopropyl-4-{6-[(3,5-difluorophenyl)sulfanyl]-8-[(2-hydroxy-2-methylpropyl)amino]imidazo[1,2-b]pyridazin-3-yl}-2-methylbenzamide] | < 0.1
16 | Cc1cc(F)ccc1Sc1cc(NCC(C)(C)O)c2ncc(-c3ccc(C(=O)NC4CC4)c(C)c3)n2n1 [Example 69, N-cyclopropyl-4-{6-[(4-fluoro-2-methylphenyl)sulfanyl]-8-[(2-hydroxy-2-methylpropyl)amino]imidazo[1,2-b]pyridazin-3-yl}-2-methylbenzamide] | 1
17 | Cc1cc(-c2cnc3c(NCC(C)(C)O)cc(Sc4ccccc4F)nn23)ccc1C(=O)NC1CC1 [Example 70, N-cyclopropyl-4-{6-[(2-fluorophenyl)sulfanyl]-8-[(2-hydroxy-2-methylpropyl)amino]imidazo[1,2-b]pyridazin-3-yl}-2-methylbenzamide] | 0.3
18 | Cc1cc(-c2cnc3c(NCC(C)(C)O)cc(Sc4ccc(F)cc4)nn23)ccc1C(=O)NC1CC1 [Example 71, N-cyclopropyl-4-{6-[(4-fluorophenyl)sulfanyl]-8-[(2-hydroxy-2-methylpropyl)amino]imidazo[1,2-b]pyridazin-3-yl}-2-methylbenzamide] | 0.8
19 | C/C=C(\C)c1cc(NCC(C)(C)O)c2ncc(-c3ccc(C(=O)NC4CC4)cc3OC)n2n1 [Example 72, 4-{6-[(2E)-But-2-en-2-yl]-8-[(2-hydroxy-2-methylpropyl)amino]imidazo[1,2-b]pyridazin-3-yl}-N-cyclopropyl-3-methoxybenzamide] | 44.4
20 | Cc1cc(-c2cnc3c(NCC(C)(C)O)cc(Sc4ccccc4O)nn23)ccc1C(=O)NC1CC1 [Example 73A, N-cyclopropyl-4-{8-[(2-hydroxy-2-methylpropyl)amino]-6-[(2-hydroxyphenyl)sulfanyl]imidazo[1,2-b]pyridazin-3-yl}-2-methylbenzamide] | < 0.7
21 | COc1ccccc1Sc1cc(NCC(C)(C)O)c2ncc(-c3ccc(C(=O)NC4CC4)c(C)c3)n2n1 [Example 73B, N-cyclopropyl-4-{8-[(2-hydroxy-2-methylpropyl)amino]-6-[(2-methoxyphenyl)sulfanyl]imidazo[1,2-b]pyridazin-3-yl}-2-methylbenzamide] | 3.8
22 | O=C(NC1CC1)c1ccc(-c2cnc3c(NCCC(F)(F)F)cc(Sc4ccccc4)nn23)c(O)c1 [Example 74, N-cyclopropyl-3-hydroxy-4-{6-(phenylsulfanyl)-8-[(3,3,3-trifluoropropyl)amino]imidazo[1,2-b]pyridazin-3-yl}benzamide] | < 0.7
23 | Cc1cc(-c2cnc3c(NCC(C)(C)O)cc(Oc4cccc(F)c4)nn23)ccc1C(=O)NC1CC1 [Example 75, N-cyclopropyl-4-{6-(3-fluorophenoxy)-8-[(2-hydroxy-2-methylpropyl)amino]imidazo[1,2-b]pyridazin-3-yl}-2-methylbenzamide] | < 0.7
24 | Cc1cc(-c2cnc3c(NCC(C)(C)O)cc(Oc4ccccc4)nn23)ccc1C(=O)NC1CC1 [Example 76, N-cyclopropyl-4-{8-[(2-hydroxy-2-methylpropyl)amino]-6-phenoxyimidazo[1,2-b]pyridazin-3-yl}-2-methylbenzamide] | < 0.7
25 | Cc1cc(-c2cnc3c(NCCC(F)(F)F)cc(Oc4ccccc4)nn23)ccc1C(=O)NC1CC1 [Example 77, N-cyclopropyl-2-methyl-4-{6-phenoxy-8-[(3,3,3-trifluoropropyl)amino]imidazo[1,2-b]pyridazin-3-yl}benzamide] | < 0.7
26 | Cc1cc(-c2cnc3c(NCC(C)(C)N)cc(Sc4cccc(F)c4)nn23)ccc1C(=O)NC1CC1 [Example 78, 4-{8-[(2-Amino-2-methylpropyl)amino]-6-[(3-fluorophenyl)sulfanyl]imidazo[1,2-b]pyridazin-3-yl}-N-cyclopropyl-2-methylbenzamide] | 0.2
